In data set [1] the target is T1, Adenylate Kinase (rabbit muscle) (Oryctolagus cuniculus, UniProt P00569).
T1 construct: Enzyme (rabbit muscle) was purchase from Sigma; purchased Sigma; host or cells: rabbit muscle
T1 sequence (P00569 1-194): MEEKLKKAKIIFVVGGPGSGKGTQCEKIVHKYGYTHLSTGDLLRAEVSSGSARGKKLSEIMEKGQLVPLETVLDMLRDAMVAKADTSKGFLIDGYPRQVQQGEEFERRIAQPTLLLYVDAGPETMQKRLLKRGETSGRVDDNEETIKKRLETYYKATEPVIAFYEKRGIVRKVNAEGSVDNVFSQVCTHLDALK
The experiment in a line: Adenylate kinase selectivity assay. In kind it is biochemical. Conditions: for IC50: Table 3 Selectivity, read-out: Adenylate Kinase (inh.); for effect on adenylate kinase: result in words. The protocol:
(§1) To determine the selectivity of compounds towards FBPase, effects of FBPase inhibitors on 5 key AMP binding enzymes were measured using the assays described below:
Adenylate Kinase: Enzyme (rabbit muscle) was purchase from Sigma. Activity was measured at 37° C. in reaction mixtures (100 μL) containing 100 mM Hepes, pH 7.4, 45 mM MgCl2, 1 mM EGTA, 100 mM KCl, 2 mg/ml BSA, 1 mM AMP and 2 mM ATP. Reactions were started by addition of 4.4 ng enzyme and terminated after 5 minutes by addition of 17 μL perchloric acid. Precipitated protein was removed by centrifugation and the supernatant neutralized by addition of 33 μL 3 M KOH/3 M KH2CO3. The neutralized solution was clarified by centrifugation and filtration and analyzed for ADP content (enzyme activity) by HPLC using a YMC ODS AQ column (25×4.6 cm). A gradient was run from 0.1 M KH2PO4, pH 6, 8 mM tetrabutyl ammonium hydrogen sulfate to 75% acetonitrile. Absorbance was monitored at 254 nm.

The next data set deals with T2, Human adenosine kinase (Homo sapiens, UniProt P55263).
T2 construct: made in house; host or cells: E. coli
The data set can be described thus: Adenosine kinase selectivity assay. Format: biochemical. Conditions: for IC50: Table 3 Selectivity, read-out: Adenosine Kinase (inh.); for effect on adenosine kinase: result in words. The protocol: as §1
Adenosine Kinase: Human adenosine kinase was purified from an E. coli expression system as described by Spychala et al (Spychala, J., Datta, N. S., Takabayashi, K., Datta, M., Fox, I. H., Gribbin, T., and Mitchell, B. S. (1996) Proc. Natl. Acad. Sci. USA 93, 1232-1237). Activity was measured essentially as described by Yamada et at (Yamada, Y., Goto, H., Ogasawara, N. (1988) Biochim. Biophys. Acta 660, 36-43.) with a few minor modifications. Assay mixtures contained 50 mM TRIS-maleate buffer, pH 7.0, 0.1% BSA, 1 mM ATP 1 mM MgCl2, 1.0 μM [U-^14C] adenosine (400-600 mCi/mmol) and varying duplicate concentrations of inhibitor. ^14C-AMP was separated from unreacted ^14C-adenosine by absorption to anion exchange paper (Whatman) and quantified by scintillation counting.

The subject of data set [2] is fasted Sprague Dawley rats. The data set can be described thus: Blood glucose lowering in fasted rats. In kind it is in vivo, rat. Conditions: 20 mg/kg intraperitoneally, 18 hours fasted Sprague Dawley rats, one hour post injection. The protocol:
Sprague Dawley rats (250-300 g) were fasted for 18 hours and then dosed intraperitoneally with 20 mg/kg of compounds 12.53, 12.61, or 12.64. The vehicle used for drug administration was 50 mM sodium bicarbonate. Blood samples were obtained from the tail vein of conscious animals just prior to injection and one hour post injection. Blood glucose was measured using a HemoCue Inc. glucose analyzer according to the instructions of the manufacturer.

Data set [3] in a line: Analysis of drug levels and liver accumulation in rats. As to conditions: rat, 20 mg/kg intraperitoneally, one hour post injection. Format: in vivo. The protocol: Sprague-Dawley rats (250-300 g) were fasted for […] and then dosed intraperitoneally either with saline (n=3) or 20 mgs/kg of FBPase inhibitor (n=4). The vehicle used for drug administration was 10 mM bicarbonate. One hour post injection rats were anesthetized with halothane and a liver biopsy (approx. 1 g) was taken as well as a blood sample (2 ml) from the posterior vena cava. A heparin flushed syringe and needle was used for blood collection. The liver sample was immediately homogenized in ice-cold 10% perchloric acid (3 mL), centrifuged, and the supernatant neutralized with ⅓rd volume of 3 M KOH/3 M KH2CO3. Following centrifugation and filtration, 50 μl of the neutralized extract was ana lyzed for FBPase inhibitor content by HPLC. A reverse phase YMC ODS AQ column ([…]) was used and eluted with a gradient from 10 mM sodium phosphate pH 5.5 to 75% acetonitrile. Absorbance was monitored at 310 nm. […] The methanolic extract was clarified by centrifugation and filtration and then analyzed by HPLC as described above.

A further data set relates to rat hepatocytes. The experiment in a line: Glucose production inhibition and fructose 1,6-bisphosphate accumulation in rat hepatocytes. In kind it is cell-based. The protocol: Hepatocytes were prepared from overnight fasted Sprague-Dawley rats (250-300 g) according to the procedure of Berry and Friend (Berry, M. N., Friend, D. S., 1969, J. Cell. Biol. 43, 506-520) as modified by Groen (Groen, A. K., Sips, H. J., Vervoorn, R. C., Tager, J. M., 1982, Eur. J. Biochem. 122, 87-93). Hepatocytes (75 mg wet weight/mL) were incubated in 1 ml Krebs-bicarbonate buffer containing 10 mM Lactate, 1 mM pyruvate, 1 mg/mL BSA, and test compound concentrations from 1 to 500 μM. Incubations were carried out in a 95% oxygen, 5% carbon dioxide atmosphere in closed, 50-mL Falcon tubes submerged in a rapidly shaking water bath (37° C.). After 1 hour, an aliquot (0.25 mL) was removed, transferred to an Eppendorf tube and centrifuged. 50 μL of supernatant was then assayed for glucose content using a Sigma Glucose Oxidase kit as per the manufacturer's instructions.
Isolated rat hepatocytes were prepared as described in Example D and incubated under the identical conditions described. […] After thorough mixing and centrifugation, the supernatant was analyzed for glucose content as described in Example D, and also for fructose 1,6-bisphosphate. Fructose 1,6-bisphosphate was assayed spectrophotometrically by coupling its enzymatic conversion to glycerol 3-phosphate to the oxidation of NADH, which was monitored at 340 nm. […]

These results are taken from patent publication US6399782B1, “Benzimidazole inhibitors of fructose 1,6-bisphosphatase” (Metabasis Therapeutics, Inc., priority 1997, dated 2002).

T2 sequence (P55263 1-345 isoform P55263-2): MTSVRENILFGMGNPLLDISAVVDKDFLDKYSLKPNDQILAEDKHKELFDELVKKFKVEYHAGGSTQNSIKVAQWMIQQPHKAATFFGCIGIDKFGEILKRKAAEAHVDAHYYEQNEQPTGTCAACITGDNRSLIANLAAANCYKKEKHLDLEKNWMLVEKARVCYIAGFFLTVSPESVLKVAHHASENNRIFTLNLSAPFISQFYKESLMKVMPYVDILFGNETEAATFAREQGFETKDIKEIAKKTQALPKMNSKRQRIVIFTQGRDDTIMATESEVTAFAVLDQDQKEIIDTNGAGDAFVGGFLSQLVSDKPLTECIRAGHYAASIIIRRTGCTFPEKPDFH

For the compound `CCn1c(-c2ccc(P(=O)(O)O)o2)nc2c(N)cccc21` [Compound 12.1, 4-Amino-1-ethyl-2-[2-(5-phosphono)furanyl]benzimidazole], the melting point was above 250 °C. For the same compound, in data set [1], the IC50 is above 500 µM and the “effect on adenylate kinase” value was “essentially inactive”. Besides, at Human adenosine kinase, the IC50 is above 10 µM and the “effect on adenosine kinase” value is “essentially inactive”.

Consider `Nc1c(F)ccc2c1nc(-c1ccc(P(=O)(O)O)o1)n2CC1CC1` [Compound 12.61, 4-Amino-5-fluoro-1-cyclopropylmethyl-2-(2-phosphono-5-furanyl)benzimidazole], for which the melting point was 258 to 260 °C. In addition, in data set [1], the IC50 was above 500 µM and the “effect on adenylate kinase” value is reported as “essentially without effect”. Besides, at Human adenosine kinase, the IC50 is above 100 µM and the “effect on adenosine kinase” value was “essentially without effect”. Further, the blood glucose lowering in data set [2] turned out to be 48±15%.

For the compound `CCc1cc(F)c(N)c2nc(-c3ccc(P(=O)(O)O)o3)n(CC(C)C)c12` [Compound 12.64], in data set [3], the liver level amounted to 90 nmol/g and the plasma level was 85 µM. The compound further displayed a blood glucose lowering in data set [2] of 64.6±24%. Further, in the data set with rat hepatocytes (Hepatocyte, Example F, FIG. 5, read-out: IC50 glucose production from lactate/pyruvate), the IC50 was around 3 µM. For the same compound, in the data set with rat hepatocytes (result in words), the “accumulation of fructose 1,6-bisphosphate” value is on record as “dose-dependent accumulation of fructose 1,6 bisphosphate”.

A word on the melting point: it is the temperature, or range, at which the solid turns liquid.
